Measurements published in patent US20260216138A1, “IDENTIFICATION OF OTUD7B INHIBITOR 7BI AND ITS APPLICATION IN REDUCING GROWTH OF NSCLC AND LEUKEMIA CELLS” (The University of North Carolina at Chapel Hill, priority 2023, published 2026).

Tests used:
[1] = tested on: THP1 cells; assay: Leukemia cell proliferation, THP1; format: cell-based; conditions: 72 hrs
Protocol: 2,000 cells from indicated NSLC cell lines were seeded into each well of 96-well plates. Cell viability was measured 3 days post-treatment using MTT assays following manufacturer's instruction. For cell viability assays with inhibitor treatment, 2,000 cells from indicated NSLC and HEK293 cell lines were seeded in 96-well plate. Inhibitor was added the next day at indicated concentration and cell viability was measured after 3-day treatment. For cell proliferation assays in THP1, K562 and HL60 cell lines, 1×10^6 cells from each indicated cell line were seeded in 12.5 cm2 cell culture flask and cells were counted by hemocytometer under microscope at indicated time to monitor cell proliferation. To test inhibitor effects on THP1, K562 and HL60 cell growth, 2×10^5 cells were seeded in 12.5 cm2 cell culture flask. Inhibitor was added the next day at indicated concentrations and cell number was counted after 3 days treatment. Three independent experiments were performed to generate error bars.

[2] = molecular target: T1, OTUD7B (Homo sapiens, UniProt Q6GQQ9); assay: In vitro OTUD7B deubiquitination assay, K11-linked di-ub cleavage; format: biochemical
T1 construct: OTUD7B (residues 56-446); GST (N, cleaved yes); made in house; host or cells: E. coli BL21-Codon Plus (DE3)-RIL
T1 sequence (Q6GQQ9 56-446): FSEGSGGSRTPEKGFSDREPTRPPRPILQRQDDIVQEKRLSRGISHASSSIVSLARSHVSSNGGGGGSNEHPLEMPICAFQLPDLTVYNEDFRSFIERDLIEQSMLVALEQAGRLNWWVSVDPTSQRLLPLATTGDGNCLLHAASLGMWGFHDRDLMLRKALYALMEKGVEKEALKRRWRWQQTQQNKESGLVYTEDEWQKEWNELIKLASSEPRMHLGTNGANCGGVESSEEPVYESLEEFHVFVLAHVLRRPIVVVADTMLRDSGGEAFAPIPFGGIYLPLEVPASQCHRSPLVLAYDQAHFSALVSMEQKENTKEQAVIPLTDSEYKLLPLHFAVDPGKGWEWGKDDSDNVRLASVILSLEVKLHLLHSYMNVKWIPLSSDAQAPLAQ
From the text: OTUD7B (residues 56-446), OTUD7A (residues 1-462), USP21 (residues 196-565), and USP9X (residues 1551-1970) proteins were expressed in E. Coli BL21-Codon Plus (DE3)-RIL cells. Through an N-terminal GST tag, the DUBs were purified by affinity chromatography using glutathione sepharose 4B (GS4B) resin. Following the liberation of the DUB from the GST tag. the DUBs were subjected to size exclusion chromatography (SEC). To form the K11-linked di-ub, individual ubiquitins (K11R-substituted donor Ub and ΔGG acceptor ubiquitin) were purified and fluorescently-labeled on an N-terminal cysteine using either Cy3- (donor) or Cy5-maleimide (acceptor). The different ubiquitins were then added to a mixture containing UBA1, UBE2S, and MgATP to form di-ub. After an overnight incubation at room temperature, UBE2S was removed by cation-exchange chromatography and the di-ub was purified by SEC. These proteins were used to monitor DUB activity in the presence or absence of the various inhibitors. The inhibitors were incubated with DUBs in a reaction buffer (20 mM Hepes pH=8.0, 200 mM NaCl, 0.25 mg/mL BSA and 0.005% Tween-20) for 5 min at room temperature and then 0.5 uM fluorescently-labeled di-ub (K11-linked) was added to start the reaction. 5×SDS-PAGE loading buffer was used to quench the reaction at the indicated time point. […] Mono-ubiquitin was quantified to generate an IC50 value. […]

[3] = tested on: K63-linked ubiquitination of GβL; assay: Endogenous K63-linked GβL ubiquitination (GβL-IP); format: cell-based; conditions: 16 hrs
Protocol: Cells were harvested and lysed in EBC buffer (50 mM Tris pH 7.5, 120 mM NaCl, 0.5% NP-40) supplemented with protease inhibitor cocktail (EDTA-free, mini-tablet) (Bimake) and phosphatase inhibitor cocktail (Bimake) by rotating in the cold room for 10 min followed by high-speed centrifugation at 4° C. The protein concentrations in supernatants of whole cell lysates were measured by NanoDrop OneC using the Bio-Rad Bradford protein assay reagent. Equal amounts of whole cell lysates were resolved on SDS-PAGE and immunoblotted with indicated antibodies. For immunoprecipitation analysis, 1 mg of total cell lysate was incubated with the indicated beads for 3-4 hr at 4° C. The recovered immuno-complexes were washed thoroughly three times with NETN buffer (20 mM Tris, pH 8.0, 100 mM NaCl, 1 mM EDTA and 0.5% NP-40) before being resuspended in SDS sample buffer and resolved on SDS-PAGE and immunoblotted with indicated antibodies.

Which results are given for `Cc1cc(NC(=O)c2cnn(C)c2C(=O)Nc2cc(C)nn2C2CCCC2)n(C2CCCC2)n1` [7Bi]?
cell proliferation [1]: reduced proliferation; IC50 ([2]; 0.5 uM K11-diub and 5 nM active OTUD7B, 10 min, read-out: IC50, OTUD7B catalytic activity): ~40 µM; suppression of OTUD7B-mediated K11-diub cleavage by purified 7Bi ([2]; HPLC purified 7Bi (~99% purity) compared with 90% purity): retained its ability to suppress OTUD7B-mediated K11-diub cleavage in vitro; K63-linked ubiquitination of GβL at endogenous levels ([3]; A549 cells): increased K63-linked ubiquitination of GβL at endogenous levels; K63-linked GβL ubiquitination at endogenous levels ([3]; K562 cells): increased K63-linked GβL ubiquitination at endogenous levels
